Like-named read-outs stand apart in the source and are kept apart here.

The subject of series [1] is Cryptococcus neoformans. The experiment in a line: antimycotic activity, paper disk inhibition circle. It counts as cell-based. To be noted: 48 h, 8 mm paper disk, 3 mg/ml, 37° C., 2 days, read-out: Growth inhibition Cryptococcus. The procedure: (§1) Referring to the antimycotic activity presented in Table 2, Cryptoccoccus neoformans and others were used as the test microbes, a paper disk (8 mm in diameter) was immersed in an aqueous solution of each test compound having a concentration of 3 mg/ml, air dried and placed on an agar medium, then incubation was conducted at 37° C. for 2 days, and the inhibition circle was measured. When the diameter of the inhibition circle was not larger than 8 mm, 8-10 mm, 10-20 mm, or larger than 20 mm, the activity was judged as -, ±, + or ++, respectively.

The subject of series [2] is Rhodotorula. The experiment in a line: antimycotic activity, paper disk inhibition circle. It counts as cell-based. Conditions: 48 h, 8 mm paper disk, 3 mg/ml, 37° C., 2 days, read-out: Growth inhibition Rhodotorula. As for the experimental part:
as §1

Series [3] concerns Hamigera. The experiment in a line: antimycotic activity, paper disk inhibition circle. It counts as cell-based. Conditions: 48 h; 8 mm paper disk, 3 mg/ml, 37° C., 2 days; read-out: Growth inhibition Hamigera. As for the experimental part: as §1
Series [4] relates to Tetrahymena pyriformis W strain. The experiment in a line: antiprotozoal activity, broth dilution method. In kind it is cell-based. To be noted: 28° C., 44-48 hours, pH 7.0, read-out: Growth inhibition MIC Tetrahymena.
Series [5] concerns Leptosphaeria salvinii. The experiment in a line: antifungal activity, serial dilution method. It counts as cell-based. Conditions: Nakataea oryzae; Leptosphaeria salvinii (rice stem rot); 1% glucose-bouillon agar; read-out: MIC.
The test system of series [6] is Botrytis cinerea. Put plainly: antifungal activity, serial dilution method. Conditions: Botrytis cinerea (gray mold); 1% glucose-bouillon agar. In kind it is cell-based.
In series [7] the test system is Colletotrichum lagenarium. The experiment in a line: antifungal activity, serial dilution method. In kind it is cell-based. Conditions: Colletotrichum orbiculare; Colletotrichum lagenarium (cucumber anthracnose); 1% glucose-bouillon agar; read-out: MIC.
In series [8] the test system is Aspergillus niger. The experiment in a line: antifungal activity, serial dilution method. In kind it is cell-based.
For series [9], the system named is Rauscher virus-induced promyelocytic leukemia cells R453. The experiment in a line: cell proliferation inhibiting activity against R453 cells. It counts as cell-based. To be noted: Mus musculus, read-out: cell proliferation inhibiting activity (GD50 value).
The subject of series [10] is Cochliobolus miyabeanus. Put plainly: antifungal activity, serial dilution method. It counts as cell-based. Conditions: Bipolaris oryzae.
For series [11], the system named is Saccharomyces cerevisiae. Put plainly: antifungal activity, serial dilution method. In kind it is cell-based.
The subject of series [12] is Pyricularia oryzae. The experiment in a line: microbe, parasite or virus in culture. In kind it is cell-based.
The subject of series [13] is CDF1 mice. Put plainly: toxicity in CDF1 mice. It counts as in vivo, mouse. Conditions: intraperitoneal 100 mg/kg, observation period one week. The procedure: (§2) The compounds of this invention are of relatively low toxicity. For example, the compound of Example 7 causes no deaths in CDF1 mice even at an intraperitoneal dose of 100 mg/kg (observation period: one week). The hemolytic activity of these compounds is also low in general. For example, in a hemolysis test (with human erythrocytes) by the method of Gottfried et al. [J. Lipid Research, 4, 57 (1963)], the 50% hemolytic concentration of the compound of Example 15 was about 10 μg/ml.

The test system of series [14] is human myelocytic leukemia cells HL-60. Put plainly: growth inhibiting effect (IG effect) on HL-60. In kind it is cell-based. Conditions: HL-60, 120 h, 5 day culture, read-out: IG effect on HL-60 GD50.
Series [15] has as its system mouse spontaneous myelocytic leukemia cells MI (resistant clone). Put plainly: cell proliferation inhibiting activity against MI cells. In kind it is cell-based. To be noted: read-out: cell proliferation inhibiting activity (GD50 value).
For series [16], the system named is Sclerotinia sclerotiorum. Put plainly: antifungal activity, serial dilution method. In kind it is cell-based. Conditions: Sclerotinia sclerotiorum (kidney bean stem rot); 1% glucose-bouillon agar.
Series [17] has as its system Penicillium. Put plainly: antifungal activity, serial dilution method. It counts as cell-based, Penicillium niger.
In series [18] the test system is human erythrocytes. Put plainly: hemolysis test by the method of Gottfried et al. In kind it is cell-based. To be noted: 5% human albumin, relative to without albumin. The procedure: as §2
A short description of series [19]: hemolysis test by the method of Gottfried et al. Conditions: human, erythrocytes. In kind it is cell-based, human. As for the experimental part:
as §2

Setting [20] is: Aspergillus niger (black mold), 1% glucose-bouillon agar, read-out: MIC.
[21] abbreviates: Saccharomyces cerevisiae (brewer's yeast), 1% glucose-bouillon agar, read-out: MIC.
Setting [22] is: Penicillium niger (blue mold), 1% glucose-bouillon agar, read-out: MIC.

As to `CCCCCCCCCCCCOCCOCCOCCOCCOCCOP(=O)([O-])OCC[n+]1ccccc1` [Example 2, 3,6,9,12,15-Pentaoxaheptacosyl 2-pyridinioethyl phosphate], the figures for the zone of inhibition at 3000 µg/mL in series [1], in series [2] and in series [3] were 8 to 10 mm, 10 to 20 mm and under 8 mm, respectively. The MIC in series [4] is over 4 µg/mL.
Turning to `CCCCCCCC/C=C\CCCCCCCCOCCOCCOP(=O)([O-])OCC[N+](C)(C)C` [Example 7, 3,6-Dioxatetracos-15(Z)-enyl 2-trimethylammonioethyl phosphate], the zone of inhibition at 3000 µg/mL in series [1] is over 20 mm; in series [2], 10 to 20 mm; in series [3], over 20 mm. The MIC in series [5] is 25 µg/mL; in [6] it was 6.25 µg/mL; in series [7], 25 µg/mL; in series [8] (setting [20]) it was 25 µg/mL; in [10], 25 µg/mL; in series [11] (setting [21]) it was 12.5 µg/mL. In addition, the MIC came to 3.12 µg/mL in series [12] and 0.4 µg/mL in series [4]. Moreover, the values for the IC50 in series [9], in series [14] and in series [15] were 2 to 3 µg/mL, 1 to 2 µg/mL and 8 to 11 µg/mL, respectively. The deaths result in series [13] is recorded as “no deaths”.
As to `CCCCCCCC/C=C\CCCCCCCCOCCOCCOCCOCCOP(=O)(O)OCCN` [Example 10, 3,6,9,12-Tetraoxatriacont-21(Z)-enyl 2-aminoethyl phosphate], in [1], the zone of inhibition at 3000 µg/mL fell in the range of 10 to 20 mm. Also, in [4], the MIC was over 4 µg/mL. For the same compound, the IC50 in [14] was in the range of 1 to 2 µg/mL.
`CCCCCCCCCCCCOCCOCCOP(=O)(O)OCCN` [Example 12, 2-[2-(Dodecyloxy)ethoxy]ethyl 2-aminoethyl phosphate]: the zone of inhibition at 3000 µg/mL in series [1] was over 20 mm; in series [2], 10 to 20 mm; in series [3], 10 to 20 mm. In addition, the MIC in [6] came to 50 µg/mL; in series [7], 25 µg/mL; in series [8] (setting [20]), 25 µg/mL; in [10] it was 50 µg/mL; in [11] (setting [21]), 100 µg/mL; in series [16], 25 µg/mL. Besides, the results for the MIC in series [12] and in series [4] were 100 µg/mL and 2 to 4 µg/mL, respectively. In addition, the IC50 in series [14] was 5 µg/mL.
As to `CCCCCCCCCCCCOCCOCCOCCOP(=O)(O)OCCN` [Example 13, 3,6,9-Trioxaheneicosanyl 2-aminoethyl phosphate], the zone of inhibition at 3000 µg/mL in [1], in series [2] and in [3] was 10 to 20 mm in each case. The MIC worked out at 50 µg/mL in [6]; 25 µg/mL in [7]; 25 µg/mL in [8] (setting [20]); 50 µg/mL in [10]; 100 µg/mL in series [11] (setting [21]); 25 µg/mL in [16]. In addition, the MIC was determined as 100 µg/mL in series [12] and 4 µg/mL in [4].
On to `CCCCCCCCCCCCOCCOCCOCCOCCOP(=O)(O)OCCN` [Example 14, 3,6,9,12-Tetraoxatetracosyanyl 2-aminoethyl phosphate], for which the zone of inhibition at 3000 µg/mL in series [1], in series [2] and in series [3] was 10 to 20 mm each time. Further, the MIC in [4] worked out at 4 µg/mL.
The HC50 is the concentration giving 50% haemolysis. Higher therefore signals less damage to red cells. As for `CCCCCCCCCCCCOCCOCCOP(=O)([O-])OCC[n+]1ccccc1` [Example 15, 2-[2-Dodecyloxy)ethoxy]ethyl 2-pyridinioethyl phosphate], the zone of inhibition at 3000 µg/mL was over 20 mm in series [1], 10 to 20 mm in series [2] and 10 to 20 mm in series [3]. For the same compound, the MIC in series [5] was 25 µg/mL; in [6], 12.5 µg/mL; in [7] it was 12.5 µg/mL; in series [8] (setting [20]) it was 25 µg/mL; in [17] (setting [22]), 12.5 µg/mL; in series [10], 25 µg/mL. Moreover, the MIC in series [11] (setting [21]) is 50 µg/mL; in series [16], 25 µg/mL; in series [12] it was 25 µg/mL; in series [4] it was over 4 µg/mL. In addition, the “50% hemolytic concentration in the presence of human albumin” value in [18] is given as “several times as high”. This compound registered an HC50 in series [19] of about 10 µg/mL.
Take `CCCCCCCCCCCCOCCOCCOCCOP(=O)([O-])OCC[n+]1ccccc1` [Example 16, 3,6,9-Trioxaheneicosanyl 2-pyridinioethyl phosphate]: the zone of inhibition at 3000 µg/mL was over 20 mm in series [1], 10 to 20 mm in [2] and 10 to 20 mm in series [3]. The MIC in series [5] turned out to be 25 µg/mL; in [6] it was 12.5 µg/mL; in series [7] it was 12.5 µg/mL; in series [8] (setting [20]), 25 µg/mL; in [17] (setting [22]), 12.5 µg/mL; in [10] it was 25 µg/mL. For the same compound, the MIC is 50 µg/mL in series [11] (setting [21]), 50 µg/mL in [16], 25 µg/mL in series [12] and over 4 µg/mL in series [4].
Turning to `CCCCCCCCCCCCOCCOCCOP(=O)([O-])OCC[N+](C)(C)C` [Example 25, 3,6-Dioxaoctadecyl 2-trimethylammonioethyl phosphate], the zone of inhibition at 3000 µg/mL in series [1] was over 20 mm. For the same compound, the MIC in [5] worked out at 6.25 µg/mL; in series [6], 6.25 µg/mL; in series [7], 1.56 µg/mL; in [8] (setting [20]), 25 µg/mL; in series [17] (Penicillium), 12.5 µg/mL; in [10] it was 25 µg/mL. For the same compound, the MIC in series [11] (Saccharomyces cerevisiae) is 12.5 µg/mL; in series [16], 25 µg/mL; in series [12] it was 12.5 µg/mL; in series [4], 0.4 µg/mL.
`CCCCCCCCCCCCCCOCCOCCOP(=O)([O-])OCC[N+](C)(C)C` [Example 26, 3,6-Dioxaeicosyl 2-trimethylammonioethyl phosphate]: the zone of inhibition at 3000 µg/mL in series [1] fell in the range of 10 to 20 mm. The MIC in series [5] came out at 6.25 µg/mL; in series [6], 6.25 µg/mL; in series [7], 1.56 µg/mL; in series [8] (Aspergillus niger), 12.5 µg/mL; in series [17] (setting [22]) it was 6.25 µg/mL; in series [10], 12.5 µg/mL. Moreover, the MIC came out at 6.25 µg/mL in series [11] (setting [21]), 50 µg/mL in series [16], 3.12 µg/mL in series [12] and 0.2 µg/mL in [4].

The record behind these values is patent publication US4551532A, “Ethylene glycol derivatives having anti-protozoan, anti-fungal and anti-tumor activity” (priority 1980, dated 1985).
